Measurements taken from PMC11589570, “Critical assessment of LC3/GABARAP ligands used for degrader development and ligandability of LC3/GABARAP binding pockets” (Nature Communications, 2024).
Like-named read-outs stand apart in the source and are kept apart here.

Molecular target: GABARAP (Homo sapiens, UniProt O95166)
Assay type: binding
Set-up: CSP induced: unit not given here
Conditions: for CSP: GABARAP:TH152 molar ratio 1:2

Chain of GABARAP (O95166 1-116): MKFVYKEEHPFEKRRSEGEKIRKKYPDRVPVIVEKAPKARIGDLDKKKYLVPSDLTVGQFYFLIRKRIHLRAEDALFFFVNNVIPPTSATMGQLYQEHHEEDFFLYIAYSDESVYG

CSP induced (F77 HN resonance, molar ratio TH152:GABARAP 0.125): 0.00585 | CSP induced (F77 HN resonance, molar ratio TH152:GABARAP 0.25): 0.01072 | CSP induced (F77 HN resonance, molar ratio TH152:GABARAP 0.5): 0.01977 | CSP induced (F77 HN resonance, molar ratio TH152:GABARAP 1): 0.04412 | CSP induced (F77 HN resonance, molar ratio TH152:GABARAP 2): 0.07555 | CSP induced (F77 HN resonance, molar ratio TH152:GABARAP 4): 0.08937 | CSP (GABARAP residue A36): 0.025 ppm | CSP (GABARAP residue A39): 0.019 ppm | CSP (GABARAP residue A72): 0.005 ppm | CSP (GABARAP residue A75): 0.00571 ppm | CSP (GABARAP residue A108): 0.038 ppm | CSP (GABARAP residue D27): 0.012 ppm | CSP (GABARAP residue D43): 0.019 ppm | CSP (GABARAP residue D45): 0.052 ppm | CSP (GABARAP residue D54): 0.019 ppm | CSP (GABARAP residue D74): 0.004 ppm | CSP (GABARAP residue D102): 0.027 ppm | CSP (GABARAP residue D111): 0.080 ppm | CSP (GABARAP residue E7, estimated): 0.005 ppm | CSP (GABARAP residue E8): 0.010 ppm | CSP (GABARAP residue E12): 0.005 ppm | CSP (GABARAP residue E17): 0.025 ppm | CSP (GABARAP residue E19): 0.021 ppm | CSP (GABARAP residue E34): 0.056 ppm | CSP (GABARAP residue E73): 0.015 ppm | CSP (GABARAP residue E97): 0.019 ppm | CSP (GABARAP residue E100): 0.010 ppm | CSP (GABARAP residue E101, estimated): 0.015 ppm | CSP (GABARAP residue E112): 0.029 ppm | CSP (GABARAP residue F3): 0.007 ppm | CSP (GABARAP residue F11): 0.00637 ppm | CSP (GABARAP residue F60): 0.060 ppm | CSP (GABARAP residue F62): 0.051 ppm | CSP (GABARAP residue F77): 0.076 ppm | CSP (GABARAP residue F78): 0.035 ppm | CSP (GABARAP residue F79): 0.034 ppm | CSP (GABARAP residue F103): 0.019 ppm | CSP (GABARAP residue F104): 0.027 ppm | CSP (GABARAP residue G18): 0.016 ppm | CSP (GABARAP residue G42): 0.033 ppm | CSP (GABARAP residue G58): 0.028 ppm | CSP (GABARAP residue G116): 0.011 ppm | CSP (GABARAP residue H9, estimated): 0.005 ppm | CSP (GABARAP residue H69): 0.044 ppm | CSP (GABARAP residue H98): 0.018 ppm | CSP (GABARAP residue H99): 0.035 ppm | CSP (GABARAP residue I21): 0.030 ppm | CSP (GABARAP residue I32): 0.077 ppm | CSP (GABARAP residue I41): 0.054 ppm | CSP (GABARAP residue I64): 0.020 ppm | CSP (GABARAP residue I68): 0.084 ppm | CSP (GABARAP residue I107): 0.011 ppm | CSP (GABARAP residue K2): 0.014 ppm | CSP (GABARAP residue K6, estimated): 0.005 ppm | CSP (GABARAP residue K13): 0.013 ppm | CSP (GABARAP residue K20): 0.009 ppm | CSP (GABARAP residue K23): 0.019 ppm | CSP (GABARAP residue K24): 0.039 ppm | CSP (GABARAP residue K35): 0.019 ppm | CSP (GABARAP residue K38): 0.015 ppm | CSP (GABARAP residue K46): 0.079 ppm | CSP (GABARAP residue K47): 0.091 ppm | CSP (GABARAP residue K48): 0.061 ppm | CSP (GABARAP residue K66): 0.014 ppm | CSP (GABARAP residue L44): 0.040 ppm | CSP (GABARAP residue L50): 0.088 ppm | CSP (GABARAP residue L55): 0.088 ppm | CSP (GABARAP residue L63): 0.085 ppm | CSP (GABARAP residue L70): 0.021 ppm | CSP (GABARAP residue L76): 0.043 ppm | CSP (GABARAP residue L105): 0.011 ppm | CSP (GABARAP residue M1): 0.016 ppm | CSP (GABARAP residue N81): 0.019 ppm | CSP (GABARAP residue P10, estimated): 0.005 ppm | CSP (GABARAP residue P26, estimated): 0.080 ppm | CSP (GABARAP residue P30, estimated): 0.060 ppm | CSP (GABARAP residue P37, estimated): 0.020 ppm | CSP (GABARAP residue P52, estimated): 0.030 ppm | CSP (GABARAP residue Q59): 0.033 ppm | CSP (GABARAP residue Q96): 0.025 ppm | CSP (GABARAP residue R14, estimated): 0.005 ppm | CSP (GABARAP residue R15, estimated): 0.005 ppm | CSP (GABARAP residue R22): 0.015 ppm | CSP (GABARAP residue R28): 0.021 ppm | CSP (GABARAP residue R40): 0.023 ppm | CSP (GABARAP residue R65): 0.067 ppm | CSP (GABARAP residue R67): 0.024 ppm | CSP (GABARAP residue R71): 0.007 ppm | CSP (GABARAP residue S16): 0.016 ppm | CSP (GABARAP residue S53): 0.013 ppm | CSP (GABARAP residue S110): 0.015 ppm | CSP (GABARAP residue S113): 0.021 ppm | CSP (GABARAP residue T56): 0.032 ppm | CSP (GABARAP residue V29): 0.058 ppm | CSP (GABARAP residue V31): 0.082 ppm | CSP (GABARAP residue V33): 0.031 ppm | CSP (GABARAP residue V51): 0.069 ppm | CSP (GABARAP residue V57): 0.065 ppm | CSP (GABARAP residue V80): 0.037 ppm | CSP (GABARAP residue V114): 0.00433 ppm | CSP (GABARAP residue Y25): 0.070 ppm | CSP (GABARAP residue Y49): 0.168 ppm | CSP (GABARAP residue Y61): 0.053 ppm | CSP (GABARAP residue Y106): 0.025 ppm | CSP (GABARAP residue Y109): 0.022 ppm | CSP (GABARAP residue Y115): 0.00181 ppm | CSP induced (K46 HN resonance, molar ratio TH152:GABARAP 0.125): 0.0126 | CSP induced (K46 HN resonance, molar ratio TH152:GABARAP 0.25): 0.02165 | CSP induced (K46 HN resonance, molar ratio TH152:GABARAP 0.5): 0.03932 | CSP induced (K46 HN resonance, molar ratio TH152:GABARAP 1): 0.07004 | CSP induced (K46 HN resonance, molar ratio TH152:GABARAP 2): 0.07915 | CSP induced (K46 HN resonance, molar ratio TH152:GABARAP 4): 0.08104 | CSP induced (Y25 HN resonance, molar ratio TH152:GABARAP 0.125): 0.00667 | CSP induced (Y25 HN resonance, molar ratio TH152:GABARAP 0.25): 0.01133 | CSP induced (Y25 HN resonance, molar ratio TH152:GABARAP 0.5): 0.01934 | CSP induced (Y25 HN resonance, molar ratio TH152:GABARAP 1): 0.03193 | CSP induced (Y25 HN resonance, molar ratio TH152:GABARAP 2): 0.06979 | CSP induced (Y25 HN resonance, molar ratio TH152:GABARAP 4): 0.08466
Structure (SMILES): CCCCCCC(Sc1nc(Cl)cc(Nc2nc(-c3ccc(C(=O)O)cc3)cs2)n1)C(=O)O (centres unmarked) [compound 21]
interaction in 2D NMR titration (GABARAP): interacted with TH152 via the LDS binding site
